Columns and labels:
[1] = system: adjuvant induced arthritis; assay: Adjuvant induced arthritis in rats (chronic inflammation accompanied by joint destruction); assay type: in vivo, rat (Royal Hart, Wistar strain); conditions: oral; for Dead/Treated At 21 Days: once daily days 0 through 13; for % Inhibition of Swelling (Primary lesion), Day 14: * significantly different from adjuvant controls
Procedure: Groups of three Royal Hart, Wistar strain rats weighing 200±10 grams each were injected intradermally in the right hind paw with Freund's adjuvant (dried human tubercle bacilli in a mineral oil vehicle) at a dose of 2 mg./kg. of body weight. Test compound was administered orally in a 1.5% starch vehicle at various doses once daily on days 0 through 13 post challenge. Control rats were treated in a similar manner, but given only starch vehicle. On the 14th and 21st day post challenge the diameter of the injected paw (primary lesion) was measured by micrometer caliper. The volume of inflamed paws were estimated from these measurements and the results are expressed as percent inhibition of swelling as compared to controls. At the same time, the other inflamed sites, such as ears, paws and tail (secondary lesions) were observed and each rat was graded as to degree of inflammation and swelling present. The grading is based on a scale of 0 to 24, where 0 represents a complete absence of induced arthritic nodules and 24 represents the maximum degree of inflammation. The mean grade for each treated group is calculated and the effects of each compound are expressed as percent inhibition of the control grade. Table I records the results of tests conducted with typical compounds of the present invention. These compounds appear to suppress the progression of the arthritis and associated joint deterioration.

[2] = system: articular cartilage breakdown by arthritic synovial tissue; assay: Synovium-cartilage test (hexoseamine/hydroxyproline ratio of cartilage cultured with arthritic synovium); assay type: cell-based, rabbit (New Zealand); conditions: Oryctolagus cuniculus; 10 mcg./ml.; 48 hours at 37° C.; mean of 3 or 4 tests; active if average greater than 50%; read-out: Mean % Inhibition (suppression of cartilage breakdown)
Procedure: The compounds of the invention have been tested by the synovium-cartilage test which is a modification of the method described by Dumonde, D. C. and Glynn, L. E., The Production of Arthritis in Rabbits by an Immunological Reaction to Fibrin, Brit. J. Exp. Pathol., 43, 373 (1962).
Male, New Zealand rabbits, weighing 1.6-3.0 kg. were used. The rabbits were housed in individual cages and given food and water ad libitum. The rabbits were sensitized to bovine serum albumin (BSA) by injection of 20 mg./kg. BSA in complete Freund's adjuvant. The emulsion was injected subcutaneously into multiple sites on the back. Total injection volume equaled one […]. of body weight. Between 18 and 21 days following immunization, the rabbits were challenged with an intraarticular injection of 5 mg. BSA into the right knee joint. Unanesthetized animals were restrained on their backs, and a 20-gauge, one-inch needle, with a 5 ml. syringe, was introduced into the joint and synovial fluid aspirated to determine that the synovium had been penetrated. The needle was then left in place for injection of the antigen. A 0.5 ml. portion of 10 mg./ml. BSA in sterile saline was injected into the synovial sac. The rabbits received an additional five intraarticular injections of 5 mg. BSA into the right knee at intervals of 12-16 days. Following the sixth injection the rabbits were sacrificed by an intracardiac injection of 5 ml. of a saturated solution of potassium chloride. The right knee was shaved. A longitudinal incision was made over the patellar ligament and the skin reflected under sterile conditions. The patellar ligament was cut transversely and reflected. Fascia and capsular tissue were trimmed from the lateral and medial aspects of the knee exposing the synovial membrane. The membrane was grasped with forceps, stretched laterally and then excised in a single piece on each side of the knee. The infrapatellar fat pad was removed and the joint space widened by cutting the anterior attachments of the menisci and severing the collateral cruciate ligaments. The femur and tibia were then separated and the menisci excised along with sufficient amounts of synovial tissue from the popliteal area adhering to the menisci. The tissues were immediately placed in a sterile Petri dish containing tissue culture medium composed of MEM (Earle's salts) without sodium bicarbonate,with 25 mM Hepes buffer, pH adjusted to 7.34-7.37, and antibiotics (streptomycin and neomycin, 100 units/ml.). Ten percent normal rabbit serum (NRS) was added. The tissues were rinsed three times in fresh medium plus 10% NRS, then cut into pieces of 20-30 mg.
Articular cartilage was obtained from the knees of normal, young rabbits, weighing 1.0 to 1.5 kg. The knees were shaved, the rabbits sacrificed and the joint exposed as described above. […]

arthritic paw swelling = conditions: result in words; cited from earlier work

Structure (SMILES): C/C(O)=C(\C#N)C(=O)Oc1cccc(Cl)c1Cl [2-Cyano-3-hydroxycrotonic acid, 2,3-dichlorophenyl ester]
- Dead/Treated At 21 Days ([1]; 50 mg./kg. body weight): 11/24
- Mean Weight Gain, Day 14 ([1]; 50 mg./kg.): 36 grams
- % Inhibition of Swelling (Primary lesion), Day 14 ([1]; 50 mg./kg.): 41%
- % Inhibition of Swelling (Primary lesion), Day 21 ([1]; 50 mg./kg.): 0%
- Mean Weight Gain, Day 21 ([1]; 50 mg./kg.): 32 grams

Structure (SMILES): C/C(O)=C(\C#N)C(=O)Oc1ccccc1Cl [2-Cyano-3-hydroxycrotonic acid, o-chlorophenyl ester]
- Dead/Treated At 21 Days ([1]; 50 mg./kg. body weight): 0/9
- Mean Weight Gain, Day 14 ([1]; 50 mg./kg.): 25 grams
- % Inhibition of Swelling (Primary lesion), Day 14 ([1]; 50 mg./kg.): 57%
- % Inhibition of Swelling (Primary lesion), Day 21 ([1]; 50 mg./kg.): 35%
- Mean Weight Gain, Day 21 ([1]; 50 mg./kg.): 29 grams

Structure (SMILES): C/C(O)=C(\C#N)C(=O)Oc1ccccc1F [2-Cyano-3-hydroxycrotonic acid, o-fluorophenyl ester]
- inhibition at 10 µg/mL [2]: 52.3%

Structure (SMILES): COc1ccccc1OC(=O)/C(C#N)=C(/C)O [2-Cyano-3-hydroxycrotonic acid, o-methoxyphenyl ester]
- inhibition at 10 µg/mL [2]: 49.3%

Structure (SMILES): C/C(O)=C(\C#N)C(=O)Oc1ccc(Cl)cc1 [2-Cyano-3-hydroxycrotonic acid, p-chlorophenyl ester]
- Dead/Treated At 21 Days ([1]; 25 mg./kg. body weight): 2/18
- Mean Weight Gain, Day 14 ([1]; 25 mg./kg.): 60 grams
- % Inhibition of Swelling (Primary lesion), Day 14 ([1]; 25 mg./kg.): 45%
- % Inhibition of Swelling (Primary lesion), Day 21 ([1]; 25 mg./kg.): 0%
- Mean Weight Gain, Day 21 ([1]; 25 mg./kg.): 46 grams

Structure (SMILES): COc1ccc(OC(=O)/C(C#N)=C(/C)O)cc1 [2-Cyano-3-hydroxycrotonic acid, p-methoxyphenyl ester]
- inhibition at 10 µg/mL [2]: 58.4%

Structure (SMILES): C/C(O)=C(\C#N)C(=O)Oc1ccc(C)cc1 [2-Cyano-3-hydroxycrotonic acid, p-tolyl ester]
- inhibition at 10 µg/mL [2]: 50.3%

Structure (SMILES): COc1ccc2c(c1)c(CC(=O)O)c(C)n2C(=O)c1ccc(Cl)cc1 [indomethacin]
- arthritic paw swelling (arthritic paw swelling): inhibit arthritic paw swelling
- joint and bone deterioration (arthritic paw swelling): prevent joint and bone deterioration
